The values below come from paper PMC11121535, “Inhibition of Shikimate Kinase from Methicillin-Resistant Staphylococcus aureus by Benzimidazole Derivatives. Kinetic, Computational, Toxicological, and Biological Activity Studies” (International Journal of Molecular Sciences, 2024).

Like-named read-outs stand apart in the source and are kept apart here.

Test [1] has as its target T1, shikimate kinase (SaSK) (Staphylococcus aureus, UniProt Q5HFM1).
T1 construct: gene aroK
Nature of the test: coupled enzyme assay, purified SaSK, % inhibition at […]. The class given is biochemical.

Test [2] has as its target T2, shikimate kinase (SaSK) (Staphylococcus aureus, UniProt Q5HFM1).
T2 construct: gene aroK
T2 sequence (Q5HFM1 1-174): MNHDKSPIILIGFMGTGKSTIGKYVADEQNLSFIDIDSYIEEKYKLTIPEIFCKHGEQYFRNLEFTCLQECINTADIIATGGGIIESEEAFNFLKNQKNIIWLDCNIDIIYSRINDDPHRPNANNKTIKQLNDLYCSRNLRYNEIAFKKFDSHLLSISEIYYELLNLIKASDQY
Briefly: biochemical. Set-up: Coupled PK/LDH assay of purified SaSK, NADH oxidation at 340 nm, fixed-concentration inhibition screen, 25 °C. The protocol:
The activity of purified SaSK was measured by a coupled assay described by Favela et al., [67] following the oxidation of NADH to NAD, monitored at 340 nm using an Hp Agilent 8453 UV-VIS spectrophotometer. The assay mixture contained 100 mM Tris-HCl pH 7.6, 5 mM MgCl2, 100 mM KCl, 2 mM ATP, 1 mM shikimate, 1 mM phosphoenolpyruvate, 6 μg/mL pyruvate kinase, 6 μg/mL lactate dehydrogenase, 0.25 mM NADH, 10% of dimethyl sulfoxide (DMSO), and 70 ng of purified SaSK protein. All assays were performed in triplicate at 25 °C. It is important to mention that at the percentage of DMSO used, the activity of the enzyme was not affected. The primary screening of the benzimidazole compound library was carried out at a fixed concentration of 200 µM or at the maximum solubility possible for compounds with poor solubility in assay conditions. All the compounds were dissolved in DMSO.

Test [3] deals with T1, shikimate kinase (SaSK). Briefly: pyruvate kinase/lactate dehydrogenase coupled assay with purified SaSK; Lineweaver-Burk (Ki […] vs shikimate, […] vs ATP). The class given is biochemical.
Test [4] deals with T1, shikimate kinase (SaSK). The test is described as above. The class given is biochemical. This is another data set of the same source.

For `O=C(NN=Cc1ccc([N+](=O)[O-])o1)c1ccc2[nH]c(C(F)(F)F)nc2c1` [C3, N′-[(5-Nitrofuran-2-yl)methylene]-2-(trifluoromethyl)-1H-benzimidazole-5-carbohydrazide], the inhibition at 100 µM against shikimate kinase (SaSK) [1] was found to be 43%. Take `O=C(NN=Cc1ccc([N+](=O)[O-])o1)c1ccc2[nH]cnc2c1` [C1, N′-[(5-Nitrofuran-2-yl)methylene]-1H-benzimidazole-5-carbohydrazide]: the inhibition at 70 µM on shikimate kinase (SaSK) [2] came to 50%. The same molecule showed an inhibitory constant (Ki) on shikimate kinase (SaSK) [3] of 48 µM. `Cn1c(C(F)(F)F)nc2cc(C(=O)NN=Cc3ccc([N+](=O)[O-])o3)ccc21` [C2, 1-Methyl-N′-[(5-nitrofuran-2-yl)methylene]-2-(trifluoromethyl)-1H-benzimidazole-5-carbohydrazide] gave a Ki on shikimate kinase (SaSK) [4] of 50 µM. Besides, the inhibition at 100 µM on shikimate kinase (SaSK) [2] worked out at 60%.

On to `Cn1cnc2cc(C(=O)NN=Cc3ccc([N+](=O)[O-])o3)ccc21` [C4, 1-Methyl-N′-[(5-nitrofuran-2-yl)methylene]-1H-benzimidazole-5-carbohydrazide], for which testing at 100 µM at shikimate kinase (SaSK) [1] gave an inhibition of 40%.
